These results are taken from patent US10266545B2, “Coumarin derivative as antiviral agent, pharmaceutical composition thereof, its preparation and use” (I-NOVA MEDICINSKA ISTRAZIVANJA D.O.O., priority 2016, dated 2019).

As a reminder, the IC50 is the point on the concentration scale where inhibition reaches its midpoint. A high value points to weaker potency.

The subject of this series is HIV-1. Briefly: Microtiter infectivity assay: protection of MT-4 cells from cytopathic effect of HIV-1 (MTT). It is filed as cell-based, human immunodeficiency virus 1 (HIV-1) subtype B. The settings on record: for IC50: Human immunodeficiency virus 1, MT4, inhibits 50% viral replication; for Survival (% protection): MT-4 cells infected with HIV-1; for SI = CC50/IC50: selectivity index, MT-4 cells, MTT assay. The procedure:
The first study of antiviral activity of compound 1 and the control compound 2 was performed on example of its influence on replication of human immunodeficiency virus 1 (HIV-1) by microtiter infectivity assay in cell culture and by evaluation of concentration of compound 1 or 2, which inhibits virus replication by 50% (IC50) as well as by selectivity index (SI).
The cell line used in this study was also the MT-4 cell line as described above.
A microplate assay of infectivity in cell culture, based on consideration of a cytopathic effect of the virus was described in the literature, see reference 8. At least 4 different concentrations: 10×MNC, MNC^−1, MNC^−2, and MNC^−3 were used.
In each trial, the following controls were set: • (i) cell control—only cells in culture medium and not infected with the virus; and • (ii) viral control—one column to cells infected with the virus were added only medium (200 μl) without the test compound 1 or the control compound 2.
The activity of compound 1 or control compound 2 against the cytopathic effect of HIV-1 was expressed as percentage (%) protection (survival) of the cells defined by the following formula:
[formula] wherein: • ODVS=absorption of cells infected and treated with compound 1 or 2 • ODVC=absorption of the virus-infected cells (virus control without compound 1 or 2), and • ODCC=absorption of uninfected cells (cell control)
The inhibitory concentration 50% (IC50) was defined as the concentration of test compound 1 or control compound 2, expressed in mM, which inhibits 50% viral replication. IC50 was determined directly from the curve “dose (concentration)—response (anti-HIV effect)”. The IC50 was expressed as percentage (%) of: • (i) cell viability which was obtained by the MTT assay; or • (ii) percentage (%) inhibition of enzyme reverse transcriptase (RT) activity.
On the basic of the data about CC50 and IC50 for the test substance 1 or control substance 2, the selectivity index (SI) value was estimated.
The compounds 1 or 2 were dissolved in dimethyl sulfoxide (DMSO; Sigma-Aldrich, USA) to a concentration of 1 mol/l (1 M) and after diluted in cell growth medium RPMI 1640 with 2% heat inactivated fetal bovine serum (FBS; Sigma-Aldrich, USA). All further solutions of compounds 1 or 2 were prepared ex tempore.
MT-4 cell line was not infected with HIV-1 and was used as a classic model for reproduction of acute infection with HIV-1. The cells were cultivated in RPMI 1640 growth medium supplemented with 15% fetal bovine serum (FBS; Sigma-Aldrich, USA), 100 U/ml penicillin G sodium (Sigma-Aldrich, USA), and 100 μg/ml streptomycin sulphate (Sigma-Aldrich, USA).
HIV-1 culture fluid was chronically infected and producing HIV-1 subtype B cell line H9/HTLV III B. The culture fluid was centrifuged and collected as a virus stock. The latter, used in the experiments, was of predetermined infectivity of 2·10^6 infectious virions/ml according to the microtiter infectivity assay based on the cytopathic effect of HIV, through ingestion of MTT, containing protein 24 antigen (p24) and enzyme reverse transcriptase (RT).
After counting the cells, they were resuspended in growth medium at a concentration of 6-8·10^4 cells/100 μl. Followed screening of cell suspensions (100 μl/well of that above) into sterile 96-well plates pretreated with poly-L-lysine (PLL). Since the final volume of the culture medium in each well was 200 μl, additional 100 μl of 10% FBS (containing no cells) was added. At the end of rows and columns were not seeded cells, but only culture medium without FBS.
After 24 h, the supernatant was decanted and added in 50 μl HIV-1 in dilution 10^−1. One or two columns were not infected, acting as the control cells. The plate was placed in an incubator at 37° C. and 5% content of CO2, for 1 h. The virus was then removed and in one or two columns of infected cells were added 200 μl medium containing the appropriate concentration of the test substance 1 or the control substance 2. […]

Where [1] appears, read: MT-4 cells infected with HIV-1, MTT assay.

Each structure is given as a SMILES string.

In the case of `O=c1oc2cc(O)c(O)cc2c(O)c1-c1coc2c1c(=O)oc1cc(O)c(O)cc12` [Compound 2, 7,8-dihydroxy-3-(4,6,7-trihydroxy-2-oxo-2H-chromen-3-yl)-4H-furo[3,2-c]chromen-4-one, reference compound], the “SI = CC50/IC50” value is given as 2 · 10^3. In addition, the IC50 under setting [1] worked out at 5 µM. Also, the “Survival (% protection)” value (concentration 0.000001 mM) was 0%. Besides, the “Survival (% protection)” value (concentration 0.00001 mM) was 0%. Also, the “Survival (% protection)” value (concentration 0.0001 mM) came to 0%. Also, the “Survival (% protection)” value (concentration 0.001 mM) amounted to 25%. In addition, the “Survival (% protection)” value (concentration 0.005 mM) is 50%. The “Survival (% protection)” value (concentration 0.01 mM (MNC)) was 55%.

`O=c1oc2cc(O)cc(O)c2c(O)c1-c1coc2c1c(=O)oc1cc(O)cc(O)c12` [Compound 1, 7,9-dihydroxy-3-(4,5,7-trihydroxy-2-oxo-2H-chromene-3-yl)-4H-furo[3,2-c]chromen-4-one]: the “SI = CC50/IC50” value was 1000 · 10^3. The molecule also returned a half-inhibitory concentration (IC50) under setting [1] of 0.01 µM. The “Survival (% protection)” value (concentration 0.000001 mM) is listed as 0%. In addition, the “Survival (% protection)” value (concentration 0.00001 mM) was 50%. For the same molecule, the “Survival (% protection)” value (concentration 0.0001 mM) is 55%. Moreover, the “Survival (% protection)” value (concentration 0.001 mM) stood at 60%. Further, the “Survival (% protection)” value (concentration 0.005 mM) is reported as 75%. Moreover, the “Survival (% protection)” value (concentration 0.01 mM (MNC)) is recorded as 92%. For the same molecule, the “% protection of the MT-4 cells in MNC” value (Table 3, MT-4 cells infected with HIV-1, MTT assay, at MNC) came to 100%.
